The structures appear in SMILES notation.

Assay type in all cases: biochemical
One experiment has as its target T1, IMP-1 (Serratia marcescens, UniProt P52699).
T1 construct: made in house
The experiment is described as follows: 10 minute IC50 β-lactamase inhibition assay (Chromacef hydrolysis). The settings on record: 10 min preincubation, 300 μM Chromacef, pH 7.0, 30° C. An excerpt: (§1) A chromogenic cephalosporin, Chromacef, is synthesized and isolated as described by Yu, et al. (Yu S; Vosbeek, A; Corbella, K; Severson, J; Schesser, J; and Sutton, L D. A chromogenic cephalosporin for fJ-lactamase inhibitor screening assays (2012) Analytical Biochemistry, 438, 96-98) and used to monitor β-lactamase activity. β-Lactamase enzymes are isolated from bacteria by methods known to those knowledgeable in the art. A typical assay monitors the hydrolysis of Chromacef via the formation of a species which absorbs maximally at 442 nm (molar extinction coefficient=14,500). Absorption is monitored as a function of time in buffer (either 50 mM, pH 7.0 sodium phosphate or 100 mM, pH 7.0 Trisma buffer supplemented with 100 μM ZnCl2), 100-300 μM Chromacef and 1-3 volume percent DMSO cosolvent at 30° C. using a spectrophotometer having thermal-regulated cuvette holder. The assay is initiated by addition and mixing of an appropriate amount of β-lactamase.
(§2) The 100% activity control is performed as described above using 300 μM Chromacef, 3 volume percent DMSO cosolvent in buffer (either 50 mM, pH 7.0 sodium phosphate or 100 mM, pH 7.0 Trisma buffer supplemented with 100 μM ZnCl2) at 30° C. The reaction is initiated by addition and mixing of an appropriate amount of β-lactamase and the formation of product is followed as a function of time by monitoring the increase in absorbance at 442 nm as a function of time. The reaction is followed through <10% completeness and the initial rate determined via linear least squares analysis where the slope is the initial rate.
(§3) Ten-minute inhibition assays are performed as described above using 50-500 μM inhibitor cephalosporin, 0.5-5 volume percent DMSO cosolvent, and the same amount of enzyme as used in the control assay in buffer (either 50 mM, pH 7.0 sodium phosphate or 100 mM, pH 7.0 Trisma buffer supplemented with 100 μM ZnCl2) at 30° C. The reaction is initiated by after 10 minutes points by the addition and mixing of an appropriate amount of Chromacef to give a 300 μM concentration and the formation of product is followed as a function of time by monitoring the increase in absorbance at 442 nm as a function of time. The reaction is followed through <10% completeness and the initial rate determined via linear least squares analysis where the slope is the initial rate.

Another experiment has as its target T2, KPC-3 (Klebsiella pneumoniae, UniProt Q9F663, H272Y).
T2 construct: made in house
The description is as above. To be noted: 10 min preincubation, 300 μM Chromacef, pH 7.0, 30° C.
Description: as §1, §2, §3

For experiment [1], the target named is T3, NDM-1 (Klebsiella pneumoniae, UniProt C7C422).
T3 construct: made in house
T3 sequence (C7C422 29-270, looked up, species assumed): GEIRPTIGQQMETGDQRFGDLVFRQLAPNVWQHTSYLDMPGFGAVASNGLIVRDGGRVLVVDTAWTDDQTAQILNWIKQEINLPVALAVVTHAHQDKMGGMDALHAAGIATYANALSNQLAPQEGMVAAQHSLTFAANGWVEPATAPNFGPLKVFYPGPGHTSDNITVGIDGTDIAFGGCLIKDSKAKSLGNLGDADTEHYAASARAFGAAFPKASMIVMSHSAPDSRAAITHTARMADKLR
The description is as above. To be noted: 10 min preincubation, 300 μM Chromacef, pH 7.0, 30° C.
Description: as §1, §2, §3

The target of experiment [2] is T3, NDM-1. The experiment is described as follows: Assay for determining irreversible β-lactamase inhibition (500-fold dilution). To be noted: FIG. 2. How it is done: as §2
Inhibition of β-lactamase was performed at a concentration of β-lactamase 500 times greater than used in the control assay, and 50-500 μM cephalosporin inhibitor, buffer (either 50 mM, pH 7.0 sodium phosphate or 100 mM, pH 7.0 Trisma buffer supplemented with 100 μM ZnCl2), 0.5-5 volume percent DMSO cosolvent for various times. Activity assays were performed the same as the control reaction except 2.00 μL of this inhibition solution were substituted for the uninhibited enzyme solution resulting in a 500-fold dilution of inhibitor to eliminate any competitive binding of inhibitor to enzyme.

In the next experiment the target is T4, VIM-2 (Escherichia coli, UniProt Q5U7L7).
T4 construct: made in house
The experiment is described as follows: 10 minute IC50 β-lactamase inhibition assay (Chromacef hydrolysis). To be noted: 10 min preincubation, 300 μM Chromacef, pH 7.0, 30° C.
Description: as §1, §2, §3

T1 sequence (P52699 19-246, looked up, species assumed): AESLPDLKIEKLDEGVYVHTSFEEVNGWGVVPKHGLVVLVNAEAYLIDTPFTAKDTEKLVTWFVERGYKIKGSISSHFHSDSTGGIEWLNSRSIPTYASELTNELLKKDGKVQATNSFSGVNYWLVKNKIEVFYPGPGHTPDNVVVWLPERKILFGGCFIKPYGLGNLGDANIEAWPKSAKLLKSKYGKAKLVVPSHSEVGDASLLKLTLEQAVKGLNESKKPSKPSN
T2 sequence (Q9F663 25-293 H272Y): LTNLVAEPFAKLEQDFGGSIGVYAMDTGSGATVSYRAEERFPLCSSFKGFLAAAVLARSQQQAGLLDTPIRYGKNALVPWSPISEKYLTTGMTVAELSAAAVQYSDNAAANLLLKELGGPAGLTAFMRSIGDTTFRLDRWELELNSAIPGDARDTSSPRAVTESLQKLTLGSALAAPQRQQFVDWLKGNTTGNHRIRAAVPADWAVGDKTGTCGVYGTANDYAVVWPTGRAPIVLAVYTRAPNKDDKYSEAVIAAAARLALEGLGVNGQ

For orientation: IC50 means the midpoint of a concentration-inhibition curve. A high value points to lower potency. For the compound `O=C(Cc1ccccc1)NC1C(=O)N2C(C(=O)O)=C(C=Cc3ccc(CCl)cc3[N+](=O)[O-])CS[C@H]12` (some centres unmarked) [III-Cl/benzyl, 3-(2-nitro-4-(chloromethyl)styryl)-7-(2-phenylacetamido)-ceph-3-em-4-carboxylic acid], the half-maximal inhibitory concentration (IC50) on IMP-1 is 0.584 µM; against KPC-3, 0.973 µM; against NDM-1 [1], 0.584 µM. For the same compound, on NDM-1 [2] (activity after 500-fold dilution of inhibitor), the “irreversibility of the inhibition” value is given as “irreversibility of the inhibition”. The “time-dependency of the inhibition” value on NDM-1 [2] (various incubation times) is listed as “time-dependency of the inhibition”.
Regarding `O=C(Cc1ccccc1)NC1C(=O)N2C(C(=O)O)=C(C=Cc3ccc(CCl)cc3)CS[C@H]12` (some centres unmarked) [II-Cl/benzyl, 3-(4-(chloromethyl)styryl)-7-(2-phenylacetamido)-ceph-3-em-4-carboxylic acid], the IC50 is 61.8 µM on IMP-1, 6.4 µM against NDM-1 [1] and 10.7 µM on VIM-2.

The values above are taken from patent publication US11028103B2, “Derivatized 3-styryl-cephalosporins” (priority 2013, dated 2021).
